Experiments:
Assay in all cases: relative IC50 (inflection point of fitted viability curve, relative to fitted max inhibition); higher = less sensitive
Settings in all cases: 72 h
[1] = system: IMC-1 (IL-2 20 ng/mL)
Experimental: (§1)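 Drug sensitivity and resistance testing: 5 concentrations over a 10,000-fold range, 72 h at 37 °C, viability by CellTiter-Glo normalised to DMSO and benzethonium chloride controls. IC50 is the inflection point of a logistic fit (min fixed at 0, max fitted), so it is relative to the fitted maximal inhibition. Kept only where fitted max inhibition is at least 50%.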

[2] = system: YT (IL-2 2.5 ng/mL)
Experimental: as §1

[3] = system: SNK-6 (IL-2 2.5 ng/mL)
Experimental: as §1

[4] = system: normal primary NK cells, pool 1 (3 donors), resting (IL-2 0 ng/mL)
Experimental: as §1

[5] = system: NK-YS (IL-2 2.5 ng/mL)
Experimental: as §1

[6] = system: DERL-7 (IL-2 2.5 ng/mL)
Experimental: as §1

[7] = system: NKL (IL-2 2.5 ng/mL)
Experimental: as §1

[8] = system: KAI3 (IL-2 2.5 ng/mL)
Experimental: as §1

[9] = system: normal primary NK cells, pool 1 (3 donors) (IL-2 2.5 ng/mL)
Experimental: as §1

[10] = system: KHYG-1 (IL-2 2.5 ng/mL)
Experimental: as §1

[11] = system: NK-92 (IL-2 2.5 ng/mL)
Experimental: as §1

[12] = system: normal primary NK cells, pool 2 (3 donors) (IL-2 2.5 ng/mL)
Experimental: as §1

[13] = system: normal primary NK cells, pool 3 (3 donors) (IL-2 2.5 ng/mL)
Experimental: as §1

Structure (SMILES)	relative IC50 [1]	relative IC50 [2]	relative IC50 [3]	relative IC50 [4]	relative IC50 [5]	relative IC50 [6]	relative IC50 [7]	relative IC50 [8]	relative IC50 [9]	relative IC50 [10]	relative IC50 [11]	relative IC50 [12]	relative IC50 [13]
C/C(=C\c1csc(C)n1)[C@@H]1C[C@@H]2O[C@]2(C)CCC[C@H](C)[C@H](O)[C@@H](C)C(=O)C(C)(C)[C@@H](O)CC(=O)N1 [Ixabepilone]	0.36 µM	0.308 µM	0.348 µM	> 1 µM	0.348 µM	0.335 µM	0.357 µM	0.383 µM	> 1 µM	0.301 µM	0.398 µM		
c1ccc([C@H]2CN3CCSC3=N2)cc1 [Levamisole]		> 10 µM			> 10 µM			> 10 µM		> 10 µM	> 10 µM	> 10 µM	> 10 µM
O=NN(CCCl)C(=O)NC1CCCCC1 [Lomustine]	> 10 µM					> 10 µM	> 10 µM		> 10 µM		> 10 µM	> 10 µM	> 10 µM
CCNC(=O)c1noc(-c2cc(C(C)C)c(O)cc2O)c1-c1ccc(CN2CCOCC2)cc1 [Luminespib]	0.00973 µM	0.0262 µM	0.0124 µM		0.00379 µM	0.00305 µM	0.00328 µM	0.00347 µM	0.00366 µM	0.0104 µM	0.00737 µM	0.00327 µM	0.00481 µM
O=C(c1cccc(Cl)c1F)N1CCN(Cc2cccc(Nc3nccs3)n2)CC1 [MK-8745]	0.709 µM		0.204 µM		0.203 µM	0.376 µM						> 2.5 µM	> 2.5 µM
CO[C@@H]1[C@H](N(C)C(=O)c2ccccc2)C[C@H]2O[C@]1(C)n1c3ccccc3c3c4c(c5c6ccccc6n2c5c31)C(=O)NC4 [Midostaurin]	0.486 µM	0.431 µM	0.115 µM	1.05 µM	0.338 µM	0.217 µM	0.127 µM	0.175 µM	0.188 µM	0.185 µM	0.33 µM	0.438 µM	0.594 µM
CNC(=O)c1nn(C)c2c1C(C)(C)Cc1cnc(Nc3ccc(N4CCN(C)CC4)cc3)nc1-2 [Milciclib]	3.42 µM	1.68 µM	1.78 µM	0.449 µM	1.17 µM	0.634 µM	1.22 µM	1.23 µM	1.1 µM	0.278 µM	1.19 µM	0.775 µM	1.47 µM
CO[C@@]12[C@H](COC(N)=O)C3=C(C(=O)C(C)=C(N)C3=O)N1C[C@@H]1N[C@@H]12 [Mitomycin C]	2.71 µM	3.2 µM	0.423 µM	1.63 µM	0.35 µM		0.152 µM	1.06 µM		0.432 µM	1.51 µM	1.01 µM	1.41 µM
O=C1c2c(O)ccc(O)c2C(=O)c2c(NCCNCCO)ccc(NCCNCCO)c21 [Mitoxantrone]	0.17 µM		0.0348 µM	0.151 µM	0.114 µM	0.0805 µM	0.0322 µM	0.091 µM	0.322 µM	0.158 µM		0.185 µM	
Cc1cc(OCc2nnc(SC3CCCC3)n2-c2cccnc2)ccc1-c1ccc(S(C)(=O)=O)cc1 [NMS-873]	0.0402 µM	0.0487 µM	1.44 µM	0.455 µM	0.114 µM	1.41 µM	0.488 µM	1.27 µM	0.909 µM	0.25 µM	0.506 µM	0.767 µM	1.68 µM
COc1ccc(-c2ccc3ncc4c(c3c2)n(-c2ccc(N3CCNCC3)c(C(F)(F)F)c2)c(=O)n4C)cn1 [NVP-BGT226]	0.0907 µM	0.0456 µM	0.0538 µM	0.0644 µM	0.0253 µM	0.00854 µM	0.0478 µM	0.0458 µM	0.105 µM	0.0484 µM	0.0298 µM	0.128 µM	0.167 µM
C1=N/C2=N/c3ccc(OCCN4CCCC4)c(c3)COC/C=C/COCc3cccc(c3)C(=C1)N2 [Pacritinib]	3.88 µM	0.91 µM	1.39 µM	0.838 µM	0.982 µM	0.56 µM	0.777 µM	0.569 µM	0.41 µM	0.826 µM	1.22 µM	0.367 µM	0.627 µM
CCOc1cc2ncc(C#N)c(Nc3ccc(F)c(Cl)c3)c2cc1NC(=O)/C=C/CN(C)C [Pelitinib]	0.966 µM	0.496 µM	0.103 µM	0.459 µM	0.82 µM	0.293 µM	0.475 µM	0.26 µM	0.3 µM	0.382 µM	0.51 µM	0.26 µM	0.429 µM
CNNCc1ccc(C(=O)NC(C)C)cc1 [Procarbazine]	> 10 µM	> 10 µM			> 10 µM	> 10 µM	> 10 µM	> 10 µM	> 10 µM	> 10 µM	> 10 µM	> 10 µM	> 10 µM
Cn1cc(CNCC2CCN(c3ncc(C(=O)NO)cn3)CC2)c2ccccc21 [Quisinostat]	0.0358 µM	0.0583 µM	0.0901 µM	0.00239 µM	0.0203 µM	0.0106 µM	0.011 µM	0.0147 µM	0.00778 µM	0.0214 µM	0.0395 µM	0.00599 µM	0.0131 µM
CC(C)(C)Cn1c(N)nc2ccc(-c3[nH]c(C(C)(C)C)nc3-c3ccc(F)cc3)nc21 [Ralimetinib]	> 10 µM	2.22 µM		4 µM			1.6 µM		3.57 µM		1.96 µM		
CN(C)Cc1ccc(S(=O)(=O)n2ccc(/C=C/C(=O)NO)c2)cc1 [Resminostat]	3.48 µM	1.46 µM	0.829 µM	0.268 µM	1.3 µM	1.04 µM	0.258 µM	0.304 µM	0.667 µM	0.731 µM	0.629 µM	1.16 µM	1.72 µM
CN(C)C[C@@H]1CCn2cc(c3ccccc32)C2=C(C(=O)NC2=O)c2cn(c3ccccc23)CCO1 [Ruboxistaurin]	4.18 µM	2.73 µM	2.81 µM	1.07 µM	1.54 µM	1.14 µM	1.24 µM	1.43 µM	1.43 µM	1.29 µM	2.95 µM	2.11 µM	2 µM
O=C(O)c1ccc2c(c1)nc(Nc1cccc(Cl)c1)c1ccncc12 [Silmitasertib]		1.65 µM	3.73 µM	3.78 µM	2.17 µM	2.27 µM	1.85 µM	1.78 µM	1.69 µM	2.01 µM	3.9 µM	2.23 µM	2.04 µM
CNC(=O)c1cc(Oc2ccc(NC(=O)Nc3ccc(Cl)c(C(F)(F)F)c3)cc2)ccn1 [Sorafenib]	> 1 µM						> 1 µM		> 1 µM			> 1 µM	> 1 µM
O=[N+]([O-])c1ccc2c(c1)S(=O)(=O)C=C2 [Stattic]	18.9 µM	1.77 µM	2.02 µM	1.17 µM	6.73 µM	1.22 µM	4.71 µM	1.1 µM	1.11 µM	1.7 µM	1.8 µM	1.66 µM	1.85 µM
NC(=O)Nc1sc(-c2ccc(F)cc2)cc1C(N)=O [TPCA-1]	7.19 µM	0.912 µM	0.514 µM	2.31 µM	1.44 µM	0.367 µM	0.274 µM	0.218 µM	0.997 µM	0.381 µM	0.86 µM	0.658 µM	1.02 µM
CN1CCc2c(c3ccccc3n2Cc2ccc(C(=O)NO)cc2)C1 [Tubastatin A]	3.27 µM	2.42 µM	1.43 µM	1.51 µM	1.81 µM	3.4 µM	1.03 µM	1.17 µM	1.79 µM	2.55 µM	1.58 µM		

— the supplement of paper PMC5908809
